Common to all, as to format: biochemical
One test has as its target T1, FLT-3 (Homo sapiens, UniProt P36888).
T1 construct: 0.02% BSA and 3 nM FLT-3
T1 sequence (P36888 27-993): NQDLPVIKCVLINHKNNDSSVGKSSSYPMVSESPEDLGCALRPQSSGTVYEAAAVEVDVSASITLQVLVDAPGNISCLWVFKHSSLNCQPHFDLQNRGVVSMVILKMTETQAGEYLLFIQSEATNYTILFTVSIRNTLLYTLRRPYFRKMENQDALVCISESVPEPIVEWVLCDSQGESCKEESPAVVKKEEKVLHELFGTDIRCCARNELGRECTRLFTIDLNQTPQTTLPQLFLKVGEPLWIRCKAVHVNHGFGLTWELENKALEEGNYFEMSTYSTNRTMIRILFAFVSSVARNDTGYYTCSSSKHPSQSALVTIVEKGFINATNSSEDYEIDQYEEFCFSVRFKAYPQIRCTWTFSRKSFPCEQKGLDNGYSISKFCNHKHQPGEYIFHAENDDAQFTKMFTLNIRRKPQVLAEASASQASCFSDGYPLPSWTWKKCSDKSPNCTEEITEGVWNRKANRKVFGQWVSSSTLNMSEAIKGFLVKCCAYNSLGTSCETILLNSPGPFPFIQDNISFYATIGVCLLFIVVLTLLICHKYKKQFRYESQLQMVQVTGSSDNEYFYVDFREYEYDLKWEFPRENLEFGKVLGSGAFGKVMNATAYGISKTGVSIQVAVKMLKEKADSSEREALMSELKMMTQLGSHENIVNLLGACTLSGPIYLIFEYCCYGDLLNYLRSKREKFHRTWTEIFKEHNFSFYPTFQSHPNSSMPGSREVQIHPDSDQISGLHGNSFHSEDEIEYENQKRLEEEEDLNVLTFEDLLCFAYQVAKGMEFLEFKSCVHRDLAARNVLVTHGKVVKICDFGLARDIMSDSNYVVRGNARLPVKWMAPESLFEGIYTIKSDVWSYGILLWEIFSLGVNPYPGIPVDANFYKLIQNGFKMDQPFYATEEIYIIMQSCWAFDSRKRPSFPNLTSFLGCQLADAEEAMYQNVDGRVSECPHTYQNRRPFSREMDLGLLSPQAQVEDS
As to the kind of experiment: Inhibition of FLT-3, radiometric filter-binding assay. As to conditions: 90 μM ATP, 0.5 mg/mL pE4Y, room temperature. How it is done:
(§1) Compounds were screened for their ability to inhibit FLT-3 activity using a radiometric filter-binding assay. This assay monitors the ^33P incorporation into a substrate poly(Glu, Tyr) 4:1 (pE4Y). Reactions were carried out in a solution containing 100 mM HEPES (pH 7.5), 10 mM MgCl2, 25 mM NaCl, 1 mM DTT, 0.01% BSA and 2.5% DMSO. Final substrate concentrations in the assay were 90 μM ATP and 0.5 mg/mL pE4Y (both from Sigma Chemicals, St Louis, Mo.). The final concentration of compounds is generally between 0.01 and 5 μM. Typically, a 12-point titration was conducted by preparing serial dilutions from 10 mM DMSO stock of test compound. Reactions were carried out at room temperature.
Two assay solutions were prepared. Solution 1 contains 100 mM HEPES (pH 7.5), 10 mM MgCl2, 25 mM NaCl, 1 mg/ml pE4Y and 180 μM ATP(containing 0.3 μCi of [γ-^33P]ATP for each reaction). Solution 2 contains 100 mM HEPES (pH 7.5), 10 mM MgCl2, 25 mM NaCl, 2 mM DTT, 0.02% BSA and 3 nM FLT-3. The assay was run on a 96 well plate by mixing 50 μL each of Solution 1 and […] of the test compounds. The reaction was initiated with Solution2. After incubation for 20 minutes at room temperature, the reaction was stopped with 50 μL of 20% TCA containing 0.4 mM of ATP. All of the reaction volume was then transferred to a filter plate and washed with 5% TCA by a Harvester9600 from TOMTEC (Hamden, Conn.). The amount of ^33P incorporation into pE4y was analyzed by a Packard TopCount Microplate Scintillation Counter (Meriden, Conn.). The data was fitted using Prism software to get an IC50 or Ki.

For a further test, the target named is c-Met (Homo sapiens, UniProt P08581). As to the kind of experiment: Ki determination for the inhibition of c-Met, coupled enzyme system. As to conditions: 200 μM ATP, 10 μM polyGluTyr, 80 nM c-Met, 30° C. How it is done: Compounds were screened for their ability to inhibit c-Met kinase activity using a standard coupled enzyme system (Fox et al., Protein Sci. 1998, 7, 2249). Reactions were carried out in a solution containing 100 mM HEPES (pH 7.5), 10 mM MgCl2, 25 mM NaCl, 300 μM NADH, 1 mM DTT, and 1.5% DMSO. Final substrate concentrations in the assay were 200 μM ATP (Sigma Chemicals, St Louis, Mo.) and 10 μM polyGluTyr (Sigma Chemical Company, St. Louis). Reactions were carried out at 30° C. and 80 nM c-Met. Final concentrations of the components of the coupled enzyme system were 2.5 mM phosphoenolpyruvate, 300 μM NADH, 30 μg/ml pyruvate kinase and 10 μg/ml lactate dehydrogenase.
c-Met, sequence (P08581 25-1390): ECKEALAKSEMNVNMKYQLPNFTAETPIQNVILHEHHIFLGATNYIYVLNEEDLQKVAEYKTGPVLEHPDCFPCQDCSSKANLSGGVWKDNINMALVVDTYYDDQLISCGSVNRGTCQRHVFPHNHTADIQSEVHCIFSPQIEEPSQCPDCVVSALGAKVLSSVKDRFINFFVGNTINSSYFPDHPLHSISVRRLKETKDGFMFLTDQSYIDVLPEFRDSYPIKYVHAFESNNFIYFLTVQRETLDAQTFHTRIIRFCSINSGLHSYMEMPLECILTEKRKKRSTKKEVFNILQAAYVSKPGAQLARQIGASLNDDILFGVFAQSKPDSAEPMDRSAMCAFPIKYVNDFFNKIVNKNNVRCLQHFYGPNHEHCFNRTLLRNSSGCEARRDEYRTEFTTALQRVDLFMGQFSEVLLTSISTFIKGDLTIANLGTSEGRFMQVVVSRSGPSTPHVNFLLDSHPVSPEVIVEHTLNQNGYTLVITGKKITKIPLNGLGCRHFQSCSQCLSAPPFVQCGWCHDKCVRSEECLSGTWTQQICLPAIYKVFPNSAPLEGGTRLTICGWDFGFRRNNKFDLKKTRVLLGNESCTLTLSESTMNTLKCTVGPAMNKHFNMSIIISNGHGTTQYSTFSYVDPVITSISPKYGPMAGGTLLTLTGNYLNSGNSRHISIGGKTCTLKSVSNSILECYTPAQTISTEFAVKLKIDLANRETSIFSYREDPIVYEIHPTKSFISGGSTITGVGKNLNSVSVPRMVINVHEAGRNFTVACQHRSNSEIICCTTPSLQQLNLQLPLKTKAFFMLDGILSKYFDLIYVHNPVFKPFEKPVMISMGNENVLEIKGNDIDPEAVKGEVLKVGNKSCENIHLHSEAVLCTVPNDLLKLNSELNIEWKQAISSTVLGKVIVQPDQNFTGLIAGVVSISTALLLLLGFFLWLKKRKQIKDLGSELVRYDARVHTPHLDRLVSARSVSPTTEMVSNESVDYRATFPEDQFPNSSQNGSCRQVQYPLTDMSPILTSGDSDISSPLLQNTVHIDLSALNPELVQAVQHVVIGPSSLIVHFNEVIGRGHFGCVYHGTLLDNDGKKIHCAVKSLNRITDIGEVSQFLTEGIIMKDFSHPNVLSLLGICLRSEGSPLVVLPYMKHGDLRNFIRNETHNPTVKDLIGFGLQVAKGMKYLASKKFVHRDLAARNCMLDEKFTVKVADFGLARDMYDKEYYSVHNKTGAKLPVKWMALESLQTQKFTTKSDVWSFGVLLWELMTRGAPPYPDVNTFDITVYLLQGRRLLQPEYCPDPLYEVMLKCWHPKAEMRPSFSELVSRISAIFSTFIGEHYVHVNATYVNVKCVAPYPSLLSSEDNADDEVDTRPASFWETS
An assay stock buffer solution was prepared containing all of the reagents listed above with the exception of ATP and a test compound of the present invention. The assay stock buffer solution (175 μl) was incubated in a 96 well plate with 5 μl of the test compound of the present invention at final concentrations spanning 0.006 μM to 12.5 μM at 30° C. for 10 minutes. Typically, a 12-point titration was conducted by preparing serial dilutions (from 10 mM compound stocks) with DMSO of the test compounds of the present invention in daughter plates. The reaction was initiated by the addition of 20 μl of ATP (final concentration 200 μM). Rates of reaction were obtained using a Molecular Devices Spectramax plate reader (Sunnyvale, Calif.) over 10 minutes at 30° C. The Ki values were determined from the rate data as a function of inhibitor concentration.

The target of another test is T2, c-KIT (Homo sapiens, UniProt P10721).
T2 construct: 0.02% BSA and 25 nM c-KIT
T2 sequence (P10721 26-976): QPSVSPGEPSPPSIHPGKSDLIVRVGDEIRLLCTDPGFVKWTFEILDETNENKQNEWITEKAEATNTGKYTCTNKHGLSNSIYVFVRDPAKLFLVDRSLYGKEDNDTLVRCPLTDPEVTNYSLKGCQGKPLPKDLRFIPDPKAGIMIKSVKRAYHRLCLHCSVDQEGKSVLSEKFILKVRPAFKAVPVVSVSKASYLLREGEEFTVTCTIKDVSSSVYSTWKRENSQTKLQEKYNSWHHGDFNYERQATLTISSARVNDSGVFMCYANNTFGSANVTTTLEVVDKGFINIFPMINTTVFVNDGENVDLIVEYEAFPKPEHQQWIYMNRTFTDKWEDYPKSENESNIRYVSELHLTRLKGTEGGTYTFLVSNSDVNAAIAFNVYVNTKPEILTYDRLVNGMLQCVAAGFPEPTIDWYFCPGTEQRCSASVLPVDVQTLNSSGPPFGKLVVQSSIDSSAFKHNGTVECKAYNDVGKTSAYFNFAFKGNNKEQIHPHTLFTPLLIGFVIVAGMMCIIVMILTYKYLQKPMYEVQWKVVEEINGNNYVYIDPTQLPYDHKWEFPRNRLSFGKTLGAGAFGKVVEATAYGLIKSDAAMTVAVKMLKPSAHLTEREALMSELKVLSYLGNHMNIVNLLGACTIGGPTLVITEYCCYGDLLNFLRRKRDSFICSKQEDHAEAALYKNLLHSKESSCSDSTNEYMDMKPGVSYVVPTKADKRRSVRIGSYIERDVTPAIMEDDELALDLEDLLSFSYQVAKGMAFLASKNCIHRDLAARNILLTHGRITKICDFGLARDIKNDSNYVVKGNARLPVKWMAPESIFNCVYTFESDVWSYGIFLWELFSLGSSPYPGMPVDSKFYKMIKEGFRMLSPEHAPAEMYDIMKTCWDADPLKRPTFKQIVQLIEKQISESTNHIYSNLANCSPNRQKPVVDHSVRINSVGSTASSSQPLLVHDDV
As to the kind of experiment: Inhibition of c-KIT, radiometric filter-binding assay. As to conditions: 700 μM ATP, 0.5 mg/mL pE4Y, room temperature. Here is the method:
as §1, with “Compounds are screened for” for “Compounds were screened for”, “to inhibit c-KIT activity using” for “to inhibit FLT-3 activity using”, “(pE4Y). Reactions are carried out” for “(pE4Y). Reactions were carried out”, “assay were 700 μM ATP” for “assay were 90 μM ATP”, “12-point titration is conducted by” for “12-point titration was conducted by”
Two assay solutions are prepared. Solution 1 contains 100 mM HEPES (pH 7.5), 10 mM MgCl2, 25 mM NaCl, 1 mg/ml pE4Y and 1.4 mM ATP(containing 0.5 μCi of [γ-^33P]ATP for each reaction). Solution 2 contains 100 mM HEPES (pH 7.5), 10 mM MgCl2, 25 mM NaCl, 2 mM DTT, 0.02% BSA and 25 nM c-KIT. The assay is run on a 96 well plate by mixing 33 μL of Solution1 and 1.65 μL of the test compounds. The reaction is initiated with 33 μL of Solution2. After incubation for 20 minutes at room temperature, the reaction was stopped with 50 μL of 10% TCA containing 0.2 mM of ATP. All of the reaction volume is then transferred to a filter plate and washed with 5% TCA by a Harvester9600 from TOMTEC (Hamden, Conn.). The amount of ^33P incorporation into pE4y is analyzed by a Packard TopCount Microplate Scintillation Counter (Meriden, Conn.). The data is fitted using Prism software to get an IC50 or Ki.

The target of another test is T3, JAK3 (Homo sapiens, UniProt P52333).
T3 sequence (P52333 1-1124): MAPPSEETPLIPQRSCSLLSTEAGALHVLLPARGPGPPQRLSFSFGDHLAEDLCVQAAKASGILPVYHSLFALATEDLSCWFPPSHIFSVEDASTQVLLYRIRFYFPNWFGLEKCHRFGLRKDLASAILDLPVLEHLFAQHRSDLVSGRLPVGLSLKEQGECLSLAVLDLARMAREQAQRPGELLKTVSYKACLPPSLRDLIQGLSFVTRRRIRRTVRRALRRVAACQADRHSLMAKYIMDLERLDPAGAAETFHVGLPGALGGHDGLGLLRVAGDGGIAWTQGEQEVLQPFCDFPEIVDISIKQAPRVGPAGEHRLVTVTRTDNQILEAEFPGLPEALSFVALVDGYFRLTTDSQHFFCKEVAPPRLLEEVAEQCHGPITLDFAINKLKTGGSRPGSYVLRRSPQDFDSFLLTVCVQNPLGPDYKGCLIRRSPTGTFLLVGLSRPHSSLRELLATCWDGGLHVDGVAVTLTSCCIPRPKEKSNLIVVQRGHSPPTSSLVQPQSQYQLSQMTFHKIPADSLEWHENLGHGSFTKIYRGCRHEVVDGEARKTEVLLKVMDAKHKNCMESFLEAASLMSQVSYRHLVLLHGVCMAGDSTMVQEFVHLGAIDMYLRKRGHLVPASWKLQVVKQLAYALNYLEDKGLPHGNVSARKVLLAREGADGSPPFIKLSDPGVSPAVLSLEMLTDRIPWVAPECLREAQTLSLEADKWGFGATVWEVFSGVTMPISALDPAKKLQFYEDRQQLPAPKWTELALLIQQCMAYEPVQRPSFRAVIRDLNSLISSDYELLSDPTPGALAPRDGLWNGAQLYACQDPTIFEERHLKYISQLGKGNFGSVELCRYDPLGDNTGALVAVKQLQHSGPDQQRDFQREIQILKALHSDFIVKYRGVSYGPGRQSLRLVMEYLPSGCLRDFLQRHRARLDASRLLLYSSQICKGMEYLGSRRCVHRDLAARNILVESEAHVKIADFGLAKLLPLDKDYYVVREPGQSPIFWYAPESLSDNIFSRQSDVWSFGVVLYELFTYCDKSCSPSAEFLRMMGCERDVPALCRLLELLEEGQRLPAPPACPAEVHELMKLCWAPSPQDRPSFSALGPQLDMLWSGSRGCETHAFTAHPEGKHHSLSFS
As to the kind of experiment: JAK3 inhibition assay (ELISA, Poly (Glu, Ala, Tyr) coated plates). As to conditions: 2 mM ATP, 60 minutes at 30° C. How it is done:
Compound inhibition of JAK3 was assayed by the method described by G. R. Brown, et al., Bioorg. Med. Chem. Lett. 2000, vol. 10, pp 575-579 in the following manner. Into Maxisorb plates, previously coated at 4° C. with Poly (Glu, Ala, Tyr) 6:3:1 then washed with phosphate buffered saline 0.05% and Tween (PBST), was added 2 mM ATP, 5 mM MgCl2, and a solution of compound in DMSO. The reaction was started with JAK enzyme and the plates incubated for 60 minutes at 30° C. The plates were then washed with PBST, […] HRP-Conjugated 4G10 antibody was added, and the plate incubated for 90 minutes at 30° C. The plate was again washed with PBST, […] TMB solution is added, and the plates were incubated for another 30 minutes at 30° C. Sulfuric acid ([…] of 1M) was added to stop the reaction and the plate is read at 450 nm to obtain the optical densities for analysis to determine IC50 values.

pKi: −log10 of the molar value.

A word on the pKi: it is −log10 of the Ki, conventionally taken in molar units. Read a high pKi as a small Ki. On to `CN(C)Cc1cnc2[nH]cc(-c3oncc3-c3cccc(F)c3F)c2c1` [Compound 54, {3-[4-(2,3-Difluoro-phenyl)-isoxazol-5-yl]-1H-pyrrolo[2,3-b]pyridin-5-ylmethyl}-dimethyl-amine], for which the pKi at FLT-3 and on c-Met was 4.90 to 6.00 in each case.

On to `C[C@@H]1CN(c2ccc(-c3cnc4[nH]cc(-c5nncn5-c5cccc(F)c5F)c4c3)cn2)C[C@H](C)N1` [Compound 122, 3-[4-(2,3-Difluoro-phenyl)-4H-[1,2,4]triazol-3-yl]-5-[6-(3,5-dimethyl-piperazin-1-yl)-pyridin-3-yl]-1H-pyrrolo [2,3-b]pyridine], for which the negative logarithm of the Ki (pKi) at c-Met was over 6.70; on c-KIT it was 6.00 to 6.70; at JAK3, 4.90 to 6.00.

Turning to `CN(C)c1ccc(-c2cnc3[nH]cc(-c4nncn4-c4cccc(F)c4F)c3c2)cc1[N+](=O)[O-]` [Compound 131, (4-{3-[4-(2,3-Difluoro-phenyl)-4H-[1,2,4]triazol-3-yl]-1H-pyrrolo[2,3-b]pyridin-5-yl}-2-nitro-phenyl)-dimethyl-amine], the pKi at c-Met is over 6.70; at c-KIT, over 6.70; on JAK3 it was 4.90 to 6.00.

Take `OCC1CCN(c2ccc(-c3cnc4[nH]cc(-c5nncn5-c5cccc(F)c5F)c4c3)cn2)CC1` [Compound 120, (5′-{3-[4-(2,3-Difluoro-phenyl)-4H-[1,2,4]triazol-3-yl]-1H-pyrrolo[2,3-b]pyridin-5-yl}-3,4,5,6-tetrahydro-2H-[1,2′]bi-pyridinyl-4-yl)-methanol]: the pKi is over 6.70 on c-Met, 6.00 to 6.70 on c-KIT and 4.90 to 6.00 on JAK3.

For `Fc1cccc(-n2cnnc2-c2c[nH]c3ncc(-c4ccc(NCC5CCCO5)nc4)cc23)c1F` (centres unmarked) [Compound 124, (5-{3-[4-(2,3-Difluoro-phenyl)-4H-[1,2,4]triazol-3-yl]-1H-pyrrolo[2,3-b]pyridin-5-yl}-pyridin-2-yl)-(tetrahydro-furan-2-ylmethyl)-amine], the pKi on c-Met was over 6.70; at c-KIT it was 6.00 to 6.70; at JAK3, 6.00 to 6.70.

For the origin of these results see US7446199B2, “Compositions useful as inhibitors of protein kinases” (Vertex Pharmaceuticals Incorporated, priority 2003, dated 2008).
